Measurements as given in patent publication US20240425490A1, “SULFAMIDE RIBONUCLEOTIDE REDUCTASE (RNR) INHIBITORS AND USES THEREOF” (Boundless Bio, Inc., priority 2021, published 2024).

Molecular target: T1, RNR (RNR1:RNR2 1:1) (Homo sapiens, UniProt P23921)
T1 sequence (P23921 1-792): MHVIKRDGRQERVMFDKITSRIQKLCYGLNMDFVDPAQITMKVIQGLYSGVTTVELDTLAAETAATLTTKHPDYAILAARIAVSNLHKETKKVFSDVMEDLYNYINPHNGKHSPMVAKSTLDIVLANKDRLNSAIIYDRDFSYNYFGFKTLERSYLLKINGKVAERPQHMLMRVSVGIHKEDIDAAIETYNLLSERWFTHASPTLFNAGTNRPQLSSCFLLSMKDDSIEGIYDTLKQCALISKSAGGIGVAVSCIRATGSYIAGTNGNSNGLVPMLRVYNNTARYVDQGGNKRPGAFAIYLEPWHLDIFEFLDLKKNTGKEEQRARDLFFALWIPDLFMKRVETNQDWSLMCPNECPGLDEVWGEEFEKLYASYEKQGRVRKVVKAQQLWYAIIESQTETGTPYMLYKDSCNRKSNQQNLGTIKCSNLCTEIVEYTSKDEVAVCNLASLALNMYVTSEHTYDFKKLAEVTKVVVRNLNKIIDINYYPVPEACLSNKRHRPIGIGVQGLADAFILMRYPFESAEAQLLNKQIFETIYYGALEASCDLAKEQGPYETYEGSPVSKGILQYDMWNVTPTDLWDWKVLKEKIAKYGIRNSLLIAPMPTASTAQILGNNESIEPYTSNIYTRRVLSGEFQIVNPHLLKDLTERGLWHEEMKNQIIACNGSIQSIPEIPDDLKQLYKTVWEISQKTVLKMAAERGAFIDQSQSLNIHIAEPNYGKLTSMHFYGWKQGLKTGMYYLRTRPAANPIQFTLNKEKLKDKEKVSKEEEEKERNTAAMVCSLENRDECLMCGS
Assay: RNR enzyme activity, rapid-fire mass spectrometry (RFMS) assay
Assay type: biochemical
Settings: RNR 50 nM, CDP 5 μM, ATP 1 mM, 37° C., 45 min, compounds screened up to 50 μM, read-out: RF/MS IC50
Procedure: A rapid-fire mass spectrometry (RFMS) assay was used to assess RNR enzyme activity using a 384 well plate and a robotic platform.
The plate layout included two validated reference compounds (Triapine (3-AP) and Hydroxyurea (HU)): • A dose response in duplicate; top concentration: 5 μM (3-AP) and 250 μM (HU), semi-log dilutions. • Spike wells in triplicate randomly spotted at four concentrations: • 250 μM, 100 μM, 30 μM and 2 μM for HU • 5 μM, 2 μM, 0.6 μM and 0.04 μM for 3-AP
First, the multidrop pipes were saturated for 30 minutes with enzymatic solution. Then 30 μL of Stop solution was distributed in column 24. Next, 15 μL of enzyme was distributed in column 1 to 24. Next, a pre-incubation step of 15 minutes at room temperature occurred, followed by distribution of 15 μL of substrate solution (column 1 to 24). Next, the plate was incubated for 45 minutes at 37° C. 30 μL of Stop solution was distributed to columns 1 to 23.
The final parameters for the enzyme reactions were: • Incubation: 37° C., 45 min • [CDP]: 5 μM; [ATP]: 1 mM; [NADPH]: No • [RNR] final: 50 nM with 1:1 (RNR1:RNR2) ratio • Final volume: 30 μL • Stop solution: 6% HCOOH containing 2 μM of 15

SMILES	IC50 [nM]
Cc1ccc(F)c(C(C)[C@H](NS(=O)(=O)N2CCN(CC(F)F)CC2)c2n[nH]c(=O)o2)c1C (stereo partly drawn) [Example 124, 4-(2,2-difluoroethyl)-N-((1S)-2-(6-fluoro-2,3-dimethylphenyl)-1-(5-oxo-4,5-dihydro-1,3,4-oxadiazol-2-yl)propyl)piperazine-1-sulfonamide]	1000 to 10000
Cc1ccc(F)c([C@H](C)[C@H](NS(=O)(=O)N2CCCCC2CC(N)=O)c2n[nH]c(=O)o2)c1C (stereo partly drawn) [Example 16, 2-(1-(N-((1S,2S)-2-(6-fluoro-2,3-dimethylphenyl)-1-(5-oxo-4,5-dihydro-1,3,4-oxadiazol-2-yl)propyl)sulfamoyl)piperidin-2-yl)acetamide]	1000 to 10000
Cc1ccc(F)c(C(C)[C@H](NS(=O)(=O)N2CCC(C#N)CC2)c2n[nH]c(=O)o2)c1C (stereo partly drawn) [Example 123, 4-cyano-N-((1S)-2-(6-fluoro-2,3-dimethylphenyl)-1-(5-oxo-4,5-dihydro-1,3,4-oxadiazol-2-yl)propyl)piperidine-1-sulfonamide]	100 to 1000
Cc1ccc(F)c(C(C)[C@H](NS(=O)(=O)N2CCC(c3ccccc3)CC2)c2n[nH]c(=O)o2)c1C (stereo partly drawn) [Example 34, N-((1S)-2-(6-fluoro-2,3-dimethylphenyl)-1-(5-oxo-4,5-dihydro-1,3,4-oxadiazol-2-yl)propyl)-4-phenylpiperidine-1-sulfonamide]	1000 to 10000
Cc1ccc(F)c(C(C)[C@H](NS(=O)(=O)N2CCCCC2)c2n[nH]c(=O)o2)c1C (stereo partly drawn) [Example 138, N-((1S)-2-(6-fluoro-2,3-dimethylphenyl)-1-(5-oxo-4,5-dihydro-1,3,4-oxadiazol-2-yl)propyl)piperidine-1-sulfonamide]	100 to 1000
Cc1ccc(F)c([C@@H](C)[C@H](NS(=O)(=O)N2CCCCC2CC(N)=O)c2n[nH]c(=O)o2)c1C (stereo partly drawn) [Example 15, 2-(1-(N-((1S,2R)-2-(6-fluoro-2,3-dimethylphenyl)-1-(5-oxo-4,5-dihydro-1,3,4-oxadiazol-2-yl)propyl)sulfamoyl)piperidin-2-yl)acetamide]	100 to 1000
Cc1ccc(F)c([C@@H](C)[C@H](NS(=O)(=O)N2CCC(Cl)(Cl)CC2)c2n[nH]c(=O)o2)c1C [Example 97, 4,4-dichloro-N-((1S,2R)-2-(6-fluoro-2,3-dimethylphenyl)-1-(5-oxo-4,5-dihydro-1,3,4-oxadiazol-2-yl)propyl)piperidine-1-sulfonamide]	≤ 100
Cc1ccc(F)c(C(C)[C@H](NS(=O)(=O)N2CCC(C(=O)N(C)C)CC2)c2n[nH]c(=O)o2)c1C (stereo partly drawn) [Example 64, 1-(N-((1S)-2-(6-fluoro-2,3-dimethylphenyl)-1-(5-oxo-4,5-dihydro-1,3,4-oxadiazol-2-yl)propyl)sulfamoyl)-N,N-dimethylpiperidine-4-carboxamide]	1000 to 10000
Cc1ccc(F)c([C@H](C)[C@H](NS(=O)(=O)N2CC3CC3C2)c2n[nH]c(=O)o2)c1C (stereo partly drawn) [Example 104, N-((1S,2S)-2-(6-fluoro-2,3-dimethylphenyl)-1-(5-oxo-4,5-dihydro-1,3,4-oxadiazol-2-yl)propyl)-3-azabicyclo[3.1.0]hexane-3-sulfonamide]	10000 to 100000
Cc1ccc(F)c([C@H](C)[C@H](NS(=O)(=O)N2CCC(CCl)CC2)c2n[nH]c(=O)o2)c1C [Example 40, 4-(chloromethyl)-N-((1S,2S)-2-(6-fluoro-2,3-dimethylphenyl)-1-(5-oxo-4,5-dihydro-1,3,4-oxadiazol-2-yl)propyl)piperidine-1-sulfonamide]	10000 to 100000
Cc1ccc(F)c([C@@H](C)[C@H](NS(=O)(=O)N2CCc3ccc(Cl)c(Cl)c3C2)c2n[nH]c(=O)o2)c1C [Example 108, 7,8-dichloro-N-((1S,2R)-2-(6-fluoro-2,3-dimethylphenyl)-1-(5-oxo-4,5-dihydro-1,3,4-oxadiazol-2-yl)propyl)-3,4-dihydroisoquinoline-2(1H)-sulfonamide]	100 to 1000

Now from value to molecule:

IC50 [nM]	SMILES
10000 to 100000	C#CC1CCN(S(=O)(=O)N[C@H](c2n[nH]c(=O)o2)[C@@H](C)c2c(F)ccc(C)c2C)CC1 [Example 47, 4-ethynyl-N-((1S,2S)-2-(6-fluoro-2,3-dimethylphenyl)-1-(5-oxo-4,5-dihydro-1,3,4-oxadiazol-2-yl)propyl)piperidine-1-sulfonamide]
10000 to 100000	Cc1ccc(F)c(C(C)[C@H](NS(=O)(=O)N2CCC(CN(C)C)CC2)c2n[nH]c(=O)o2)c1C (stereo partly drawn) [Example 31, 4-((dimethylamino)methyl)-N-((1S)-2-(6-fluoro-2,3-dimethylphenyl)-1-(5-oxo-4,5-dihydro-1,3,4-oxadiazol-2-yl)propyl)piperidine-1-sulfonamide]
1000 to 10000	Cc1ccc(F)c([C@H](C)[C@H](NS(=O)(=O)N2CCCC(C)(C)C2)c2n[nH]c(=O)o2)c1C [Example 119, N-((1S,2S)-2-(6-fluoro-2,3-dimethylphenyl)-1-(5-oxo-4,5-dihydro-1,3,4-oxadiazol-2-yl)propyl)-3,3-dimethylpiperidine-1-sulfonamide]
100 to 1000	Cc1ccc(F)c(C(C)[C@H](NS(=O)(=O)N2CCCC(C(C)C)C2)c2n[nH]c(=O)o2)c1C (stereo partly drawn) [Example 24, N-((1S)-2-(6-fluoro-2,3-dimethylphenyl)-1-(5-oxo-4,5-dihydro-1,3,4-oxadiazol-2-yl)propyl)-3-isopropylpiperidine-1-sulfonamide]
1000 to 10000	Cc1ccc(F)c([C@H](C)[C@H](NS(=O)(=O)N2CCC(C)(C#N)CC2)c2n[nH]c(=O)o2)c1C [Example 82, 4-cyano-N-((1S,2S)-2-(6-fluoro-2,3-dimethylphenyl)-1-(5-oxo-4,5-dihydro-1,3,4-oxadiazol-2-yl)propyl)-4-methylpiperidine-1-sulfonamide]
100 to 1000	Cc1ccc(F)c(C(C)[C@H](NS(=O)(=O)N2CCC3(CCOCC3)CC2)c2n[nH]c(=O)o2)c1C (stereo partly drawn) [Example 91, N-((1S)-2-(6-fluoro-2,3-dimethylphenyl)-1-(5-oxo-4,5-dihydro-1,3,4-oxadiazol-2-yl)propyl)-3-oxa-9-azaspiro[5.5]undecane-9-sulfonamide]
100 to 1000	Cc1ccc(F)c([C@H](C)[C@H](NS(=O)(=O)N2CCC3(CC2)OCCO3)c2n[nH]c(=O)o2)c1C [Example 134, N-((1S,2S)-2-(6-fluoro-2,3-dimethylphenyl)-1-(5-oxo-4,5-dihydro-1,3,4-oxadiazol-2-yl)propyl)-1,4-dioxa-8-azaspiro[4.5]decane-8-sulfonamide]
100 to 1000	Cc1ccc(F)c([C@@H](C)[C@H](NS(=O)(=O)N2CCC(Oc3ccccn3)CC2)c2n[nH]c(=O)o2)c1C [Example 70, N-((1S,2R)-2-(6-fluoro-2,3-dimethylphenyl)-1-(5-oxo-4,5-dihydro-1,3,4-oxadiazol-2-yl)propyl)-4-(pyridin-2-yloxy)piperidine-1-sulfonamide]
1000 to 10000	Cc1ccc(F)c([C@@H](C)[C@H](NS(=O)(=O)N2CCC(C(F)F)CC2)c2n[nH]c(=O)o2)c1C [Example 45, 4-(difluoromethyl)-N-((1S,2R)-2-(6-fluoro-2,3-dimethylphenyl)-1-(5-oxo-4,5-dihydro-1,3,4-oxadiazol-2-yl)propyl)piperidine-1-sulfonamide]
10000 to 100000	Cc1ccc(F)c([C@H](C)[C@H](NS(=O)(=O)N2CCC(F)(F)CC2)c2n[nH]c(=O)o2)c1C [Example 2, 4,4-difluoro-N-[(1S,2S)-2-(6-fluoro-2,3-dimethylphenyl)-1-(5-oxo-4H-1,3,4-oxadiazol-2-yl)propyl]piperidine-1-sulfonamide]
